Patent US9540392B2, “Thienopyrimidines” (BAYER PHARMA AKTIENGESELLSCHAFT, priority 2012, dated 2017)

Target: T1, human full-length MKNK1 (Homo sapiens, UniProt Q9BUB5, T385D)
T1 construct: GST (N); purchased Carna Biosciences 02-145; host or cells: insect cells (baculovirus expression system)
Test: MKNK1 kinase high ATP assay (TR-FRET)
Assay type: biochemical
Details: 2 mM ATP, after preincubation with MKNK1; read-out: MKNK1 IC50 (MKNK1 high ATP)
In short: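 Compound was preincubated 15 min at 22° C. with MKNK1 in 50 mM HEPES pH 7.5, 5 mM MgCl2, 1.0 mM DTT, then the reaction ran 30 min at 22° C. with 2 mM ATP and 0.06 μM biotinylated peptide (final).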

T1 sequence (Q9BUB5 1-424 isoform Q9BUB5-2 T344D): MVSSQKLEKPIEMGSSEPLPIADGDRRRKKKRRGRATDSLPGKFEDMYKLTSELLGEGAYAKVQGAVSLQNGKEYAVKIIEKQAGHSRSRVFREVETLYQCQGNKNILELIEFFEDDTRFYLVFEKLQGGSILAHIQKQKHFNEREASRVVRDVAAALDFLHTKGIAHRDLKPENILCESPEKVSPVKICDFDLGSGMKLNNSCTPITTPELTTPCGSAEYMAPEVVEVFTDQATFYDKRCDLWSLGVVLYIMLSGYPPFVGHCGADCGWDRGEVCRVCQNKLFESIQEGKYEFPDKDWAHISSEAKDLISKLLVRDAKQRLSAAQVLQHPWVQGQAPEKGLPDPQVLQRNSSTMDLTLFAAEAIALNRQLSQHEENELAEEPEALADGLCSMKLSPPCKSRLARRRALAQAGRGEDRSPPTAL

Row | Structure (SMILES) | IC50 [nM]
1 | CCCN(C)C(=O)C1CCc2c(sc3ncnc(Nc4cc5cn[nH]c5cc4OCC)c23)C1 (racemic) [Example 253, (RS)-4-[(6-Ethoxy-1H-indazol-5-yl)amino]-N-methyl-N-propyl-5,6,7,8-tetrahydro[1]benzothieno[2,3-d]pyrimidine-7-carboxamide] | 1.2
2 | O=C(C1CCc2c(sc3ncnc(Nc4ccc5[nH]ncc5c4)c23)C1)N1CC[C@@H](O)C1 (mixture of isomers) [Example 134, (RS)-(3-hydroxypyrrolidin-1-yl)[4-(1H-indazol-5-ylamino)-5,6,7,8-tetrahydro[1]benzothieno[2,3-d]pyrimidin-7-yl]methanone] | 12.7
3 | CCOc1cc2[nH]ncc2cc1Nc1ncnc2sc3c(c12)CCC(C(=O)N(C)CC(O)CO)C3 (racemic) [Example 257, (7RS)—N-[(2RS)-2,3-Dihydroxypropyl]-4-[(6-ethoxy-1H-indazol-5-yl)amino]-N-methyl-5,6,7,8-tetrahydro[1]benzothieno[2,3-d]pyrimidine-7-carboxamide] | 0.6
4 | COc1cc2[nH]ncc2cc1Nc1ncnc2sc3c(c12)CCC(C(=O)N1[C@H](C)CC[C@H]1C)C3 (mixture of isomers) [Example 178, [(2R,5R)-2,5-Dimethylpyrrolidin-1-yl]{(7RS)-4-[(6-methoxy-1H-indazol-5-yl)amino]-5,6,7,8-tetrahydro[1]benzothieno[2,3-d]pyrimidin-7-yl}methanone] | 0.2
5 | N#Cc1ccc(N2CCN(C(=O)C3CCc4c(sc5ncnc(Nc6ccc7[nH]ncc7c6)c45)C3)CC2)cc1 (racemic) [Example 141, (RS)-4-(4-{[4-(1H-indazol-5-ylamino)-5,6,7,8-tetrahydro[1]benzothieno[2,3-d]pyrimidin-7-yl]carbonyl}piperazin-1-yl)benzonitrile] | 17.4
6 | O=C(C1CCc2c(sc3ncnc(Nc4ccc5[nH]ncc5c4)c23)C1)N1CCN(C(=O)N2CCCC2)CC1 (stereo not drawn) [Example 52, [4-(1H-Indazol-5-ylamino)-5,6,7,8-tetrahydro[1]benzothieno [2,3-d]pyrimidin-7-yl][4-(pyrrolidin-1-ylcarbonyl)piperazin-1-yl]methanone] | 20
7 | N#CC1CCCN(C(=O)C2CCc3c(sc4ncnc(Nc5ccc6[nH]ncc6c5)c34)C2)C1 (racemic) [Example 196, (RS)-1-{[4-(1H-indazol-5-yalmino)-5,6,7,8-tetrahydro[1]benzothieno[2,3-d]pyrimidin-7-yl]carbonyl}piperidine-3-carbonitrile] | 7.5
8 | O=C(C1CCc2c(sc3ncnc(Nc4ccc5[nH]ncc5c4)c23)C1)N1CCCCC1 (racemic) [Example 82, (RS)-[4-(1H-indazol-5-ylamino)-5,6,7,8-tetrahydro[1]benzothieno[2,3-d]pyrimidin-7-yl](piperidin-1-yl)methanone] | 14.6
9 | CCOc1cc2[nH]ncc2cc1Nc1ncnc2sc3c(c12)CCC(C(=O)N1CCCCC1)C3 (racemic) [Example 209, (RS)-{4-[(6-Ethoxy-1H-indazol-5-yl)amino]-5,6,7,8-tetrahydro[1]benzothieno[2,3-d]pyrimidin-7-yl}(piperidin-1-yl)methanone] | 0.7
10 | O=C(C1CCc2c(sc3ncnc(Nc4ccc5[nH]ncc5c4)c23)C1)N1CCN(c2ccncc2)CC1 (racemic) [Example 112, (RS)-[4-(1H-indazol-5-ylamino)-5,6,7,8-tetrahydro[1]benzothieno[2,3-d]pyrimidin-7-yl][4-(pyridin-4-yl)piperazin-1-yl]methanone] | 9.4
11 | CCOc1cc2[nH]ncc2cc1Nc1ncnc2sc3c(c12)CCC(C(=O)N1CCCC1)C3 (racemic) [Example 228, (RS)-{4-[(6-Ethoxy-1H-indazol-5-yl)amino]-5,6,7,8-tetrahydro[1]benzothieno[2,3-d]pyrimidin-7-yl}(pyrrolidin-1-yl)methanone] | 0.2
12 | CCOC(=O)C1CCc2c(sc3ncnc(Nc4cc5cn[nH]c5cc4F)c23)C1 (stereo not drawn) [Example 54, Ethyl 4-[(6-fluoro-1H-indazol-5-yl)amino]-5,6,7,8-tetrahydro[1]benzothieno[2,3-d]pyrimidine-7-carboxylate] | 19
13 | CN1CCN(C(=O)C2CCc3c(sc4ncnc(Nc5ccc6[nH]ncc6c5)c34)C2)CC1CCO (racemic) [Example 197, (RS)-[3-(2-hydroxyethyl)-4-methylpiperazin-1-yl][4-(1H-indazol-5-ylamino)-5,6,7,8-tetrahydro[1]benzothieno[2,3-d]pyrimidin-7-yl]methanone] | 7.9
14 | COc1cc2[nH]ncc2cc1Nc1ncnc2sc3c(c12)CCC(C(=O)N(C)CC(F)F)C3 (racemic) [Example 170, (RS)—N-(2,2-Difluoroethyl)-4-[(6-methoxy-1H-indazol-5-yl)amino]-N-methyl-5,6,7,8-tetrahydro[1]benzothieno[2,3-d]pyrimidine-7-carboxamide] | 0.8
15 | CCOc1cc2[nH]ncc2cc1Nc1ncnc2sc3c(c12)CCC(C(=O)N(CC)CCO)C3 (racemic) [Example 231, (RS)-4-[(6-Ethoxy-1H-indazol-5-yl)amino]-N-ethyl-N-(2-hydroxyethyl)-5,6,7,8-tetrahydro[1]benzothieno[2,3-d]pyrimidine-7-carboxamide] | 0.3

Continued, values first:

Row | IC50 [nM] | Structure (SMILES)
16 | 2 | COc1cccc(CNC(=O)C2CCc3c(sc4ncnc(Nc5ccc6[nH]ncc6c5)c34)C2)c1 (stereo not drawn) [Example 19, 4-(1H-indazol-5-ylamino)-N-(3-methoxybenzyl)-5,6,7,8-tetrahydro[1] benzothieno [2,3-d]pyrimidine-7-carboxamide]
17 | 9 | O=C(NC1CC1)C1CCc2c(sc3ncnc(Nc4ccc5[nH]ncc5c4)c23)C1 (stereo not drawn) [Example 44, N-Cyclopropyl-4-(1H-indazol-5-ylamino)-5,6,7,8-tetrahydro[1] benzothieno [2,3-d]pyrimidine-7-carboxamide]
18 | 14.9 | CC(C)(C)NC(=O)C1CCc2c(sc3ncnc(Nc4ccc5[nH]ncc5c4)c23)C1 (racemic) [Example 102, (RS)-N-tert-butyl-4-(1H-indazol-5-ylamino)-5,6,7,8-tetrahydro[1]benzothieno[2,3-d]pyrimidine-7-carboxamide]
19 | 10 | CNC(=O)C1CCc2c(sc3ncnc(Nc4ccc5[nH]ncc5c4)c23)C1 (stereo not drawn) [Example 11, 4-(1H-indazol-5-ylamino)-N-methyl-5,6,7,8-tetrahydro[1]benzothieno[2,3-d]pyrimidine-7-carboxamide]
20 | 3 | COc1ccccc1CNC(=O)C1CCc2c(sc3ncnc(Nc4ccc5[nH]ncc5c4)c23)C1 (stereo not drawn) [Example 22, 4-(1H-Indazol-5-ylamino)-N-(2-methoxybenzyl)-5,6,7,8-tetrahydro[1] benzothieno[2,3-d] pyrimidine-7-carboxamide]
21 | 15.3 | N#Cc1ccccc1N1CCN(C(=O)C2CCc3c(sc4ncnc(Nc5ccc6[nH]ncc6c5)c34)C2)CC1 (racemic) [Example 115, (RS)-2-(4-{[4-(1H-indazol-5-ylamino)-5,6,7,8-tetrahydro[1]benzothieno[2,3-d]pyrimidin-7-yl]carbonyl}piperazin-1-yl)benzonitrile]
22 | 14.4 | O=C(C1CCc2c(sc3ncnc(Nc4ccc5[nH]ncc5c4)c23)C1)N1CC(O)C1 (racemic) [Example 159, (RS)-(3-hydroxyazetidin-1-yl)[4-(1H-indazol-5-ylamino)-5,6,7,8-tetrahydro[1]benzothieno[2,3-d]pyrimidin-7-yl]methanone]
23 | 3 | O=C(NCc1ccc2c(c1)OCO2)C1CCc2c(sc3ncnc(Nc4ccc5[nH]ncc5c4)c23)C1 (stereo not drawn) [Example 23, N-(1,3-Benzodioxol-5-ylmethyl)-4-(1H-indazol-5-ylamino)-5,6,7,8-tetrahydro[1] benzothieno [2,3-d]pyrimidine-7-carboxamide]
24 | 31.2 | O=C(Nc1cncnc1)C1CCc2c(sc3ncnc(Nc4ccc5[nH]ncc5c4)c23)C1 (racemic) [Example 150, (RS)-4-(1H-indazol-5-ylamino)-N-(pyrimidin-5-yl)-5,6,7,8-tetrahydro[1]benzothieno[2,3-d]pyrimidine-7-carboxamide]
25 | 4 | COc1ccc(CNC(=O)C2CCc3c(sc4ncnc(Nc5ccc6[nH]ncc6c5)c34)C2)cc1 (stereo not drawn) [Example 30, 4-(1H-Indazol-5-ylamino)-N-(4-methoxybenzyl)-5,6,7,8-tetrahydro[1] benzothieno [2,3-d]pyrimidine-7-carboxamide]
26 | 11.2 | CC(O)CN(C)C(=O)C1CCc2c(sc3ncnc(Nc4ccc5[nH]ncc5c4)c23)C1 (racemic) [Example 122, (RS)-N-(2-hydroxypropyl)-4-(1H-indazol-5-ylamino)-N-methyl-5,6,7,8-tetrahydro[1]benzothieno[2,3-d]pyrimidine-7-carboxamide]
27 | 26.4 | Cn1cc(NC(=O)C2CCc3c(sc4ncnc(Nc5ccc6[nH]ncc6c5)c34)C2)cn1 (racemic) [Example 146, (RS)-4-(1H-indazol-5-ylamino)-N-(1-methyl-1H-pyrazol-4-yl)-5,6,7,8-tetrahydro[1]benzothieno[2,3-d]pyrimidine-7-carboxamide]
28 | 10.5 | N#Cc1cccc(NC(=O)C2CCc3c(sc4ncnc(Nc5ccc6[nH]ncc6c5)c34)C2)c1 (racemic) [Example 79, (RS)—N-(3-Cyanophenyl)-4-(1H-indazol-5-ylamino)-5,6,7,8-tetrahydro[1]benzothieno[2,3-d]pyrimidine-7-carboxamide]
29 | 4 | O=C(NCc1ccncc1)C1CCc2c(sc3ncnc(Nc4ccc5[nH]ncc5c4)c23)C1 (stereo not drawn) [Example 29, 4-(1H-Indazol-5-ylamino)-N-(pyridin-4-ylmethyl)-5,6,7,8-tetrahydro[1] benzothieno [2,3-d]pyrimidine-7-carboxamide]
30 | 13 | O=C(NCCCN1CCCC1=O)C1CCc2c(sc3ncnc(Nc4ccc5[nH]ncc5c4)c23)C1 (stereo not drawn) [Example 49, 4-(1H-Indazol-5-ylamino)-N-[3-(2-oxopyrrolidin-1-yl)propyl]-5,6,7,8-tetrahydro[1] benzothieno [2,3-d]pyrimidine-7-carboxamide]
